Source: ChEMBL document CHEMBL1629541, “Synthesis and structure-activity relationships of aza- and diazabiphenyl analogues of the antitubercular drug (6S)-2-nitro-6-{[4-(trifluoromethoxy)benzyl]oxy}-6,7-dihydro-5H-imidazo[2,1-b][1,3]oxazine (PA-824)” (J Med Chem, 2010)
In brackets after ≈: the same amount, converted by molar mass.

Assays:
[1] = physchem; conditions: water, pH 7
Description: Solubility of the compound in water at pH 7.0 by HPLC

[2] = in vitro; conditions: human, liver microsomes
Description: Metabolic stability in human liver microsomes assessed as compound remaining after 1 hr

[3] = in vitro; conditions: CD1, mouse, liver microsomes
Description: Metabolic stability in CD1 mouse liver microsomes assessed as compound remaining after 1 hr

[4] = tested on: Mycobacterium tuberculosis; test: microbe, parasite or virus in culture; conditions: H37Rv
[5] = tested on: Mycobacterium tuberculosis; test: microbe, parasite or virus in culture; conditions: H37Rv; remark: listed apart in the source
Description: Antitubercular activity against Mycobacterium tuberculosis H37Rv by LORA method

[6] = physchem; conditions: water, pH 1
Description: Solubility of the compound in water at pH 1.0 by HPLC

Compound	solubility [1] [µg/mL]	remaining at 1 h [2] [%]	remaining at 1 h [3] [%]	MIC [4] [µM]	MIC [5] [µM]	solubility [6] [µg/mL]
O=[N+]([O-])c1cn2c(n1)OC[C@@H](OCc1ccnc(-c3ccc(OC(F)(F)F)cc3)c1)C2	3.9 (≈ 8.94 µM)	54	31	0.035 (≈ 0.0153 µg/mL)	2.4 (≈ 1.05 µg/mL)	–
COc1ccc(-c2cc(CO[C@@H]3COc4nc([N+](=O)[O-])cn4C3)ccn2)cn1	93 (≈ 243 µM)	–	–	1.3 (≈ 0.498 µg/mL)	12 (≈ 4.6 µg/mL)	–
O=[N+]([O-])c1cn2c(n1)OC[C@@H](OCc1cncc(-c3ccc(C(F)(F)F)cc3)c1)C2	2.8 (≈ 6.66 µM)	–	–	0.15 (≈ 0.0631 µg/mL)	3.5 (≈ 1.47 µg/mL)	–
N#Cc1ccc(-c2cncc(CO[C@@H]3COc4nc([N+](=O)[O-])cn4C3)c2)cc1	29 (≈ 76.8 µM)	–	–	0.69 (≈ 0.26 µg/mL)	18 (≈ 6.79 µg/mL)	–
O=[N+]([O-])c1cn2c(n1)OC[C@@H](OCc1cncc(-c3ccc(OC(F)(F)F)cc3)c1)C2	9.5 (≈ 21.8 µM)	–	–	0.17 (≈ 0.0742 µg/mL)	2.4 (≈ 1.05 µg/mL)	–
O=[N+]([O-])c1cn2c(n1)OC[C@@H](OCc1cncc(-c3ccc(OC(F)F)cc3)c1)C2	9.2 (≈ 22 µM)	–	–	0.53 (≈ 0.222 µg/mL)	5.9 (≈ 2.47 µg/mL)	–
COc1ccc(-c2cncc(CO[C@@H]3COc4nc([N+](=O)[O-])cn4C3)c2)cc1F	24 (≈ 59.9 µM)	–	–	0.91 (≈ 0.364 µg/mL)	9 (≈ 3.6 µg/mL)	–
COc1ccc(-c2cncc(CO[C@@H]3COc4nc([N+](=O)[O-])cn4C3)c2)cn1	31 (≈ 80.9 µM)	–	–	2.8 (≈ 1.07 µg/mL)	22 (≈ 8.43 µg/mL)	–
O=[N+]([O-])c1cn2c(n1)OC[C@@H](OCc1cc(-c3ccc(C(F)(F)F)cc3)ccn1)C2	43 (≈ 102 µM)	–	–	0.88 (≈ 0.37 µg/mL)	24 (≈ 10.1 µg/mL)	–
N#Cc1ccc(-c2ccnc(CO[C@@H]3COc4nc([N+](=O)[O-])cn4C3)c2)cc1	19 (≈ 50.3 µM)	–	–	2.1 (≈ 0.792 µg/mL)	> 32	–
O=[N+]([O-])c1cn2c(n1)OC[C@@H](OCc1cc(-c3ccc(F)cc3)ccn1)C2	16 (≈ 43.2 µM)	–	–	0.46 (≈ 0.17 µg/mL)	28 (≈ 10.4 µg/mL)	–
O=[N+]([O-])c1cn2c(n1)OC[C@@H](OCc1cc(-c3ccc(OC(F)F)cc3)ccn1)C2	86 (≈ 206 µM)	–	–	0.67 (≈ 0.28 µg/mL)	26 (≈ 10.9 µg/mL)	–
COc1ccc(-c2ccnc(CO[C@@H]3COc4nc([N+](=O)[O-])cn4C3)c2)cc1F	25 (≈ 62.4 µM)	–	–	2.3 (≈ 0.921 µg/mL)	16 (≈ 6.41 µg/mL)	–
COc1ccc(-c2ccnc(CO[C@@H]3COc4nc([N+](=O)[O-])cn4C3)c2)cn1	96 (≈ 250 µM)	–	–	3.8 (≈ 1.46 µg/mL)	31 (≈ 11.9 µg/mL)	–
O=[N+]([O-])c1cn2c(n1)OC[C@@H](OCc1ccc(-c3ccc(C(F)(F)F)cc3)cn1)C2	2.3 (≈ 5.47 µM)	–	–	0.04 (≈ 0.0168 µg/mL)	3.4 (≈ 1.43 µg/mL)	–
N#Cc1ccc(-c2ccc(CO[C@@H]3COc4nc([N+](=O)[O-])cn4C3)nc2)cc1	45 (≈ 119 µM)	–	–	0.18 (≈ 0.0679 µg/mL)	7.5 (≈ 2.83 µg/mL)	–
COc1ccc(-c2ccc(CO[C@@H]3COc4nc([N+](=O)[O-])cn4C3)nc2)cc1F	10 (≈ 25 µM)	–	–	0.17 (≈ 0.0681 µg/mL)	3.4 (≈ 1.36 µg/mL)	–
O=[N+]([O-])c1cn2c(n1)OC[C@@H](OCc1ccc(-c3ccc(OC(F)(F)F)c(Cl)c3)cn1)C2	0.85 (≈ 1.81 µM)	–	–	0.04 (≈ 0.0188 µg/mL)	2.4 (≈ 1.13 µg/mL)	–
O=[N+]([O-])c1cn2c(n1)OC[C@@H](OCc1ccc(-c3ccc(C(F)(F)F)cn3)cn1)C2	5.9 (≈ 14 µM)	–	–	0.83 (≈ 0.35 µg/mL)	9.6 (≈ 4.04 µg/mL)	442 (≈ 1050 µM)
O=[N+]([O-])c1cn2c(n1)OC[C@@H](OCc1ccc(-c3ccc(Cl)c(OC(F)(F)F)c3)cn1)C2	0.8 (≈ 1.7 µM)	–	–	0.06 (≈ 0.0282 µg/mL)	2.3 (≈ 1.08 µg/mL)	–
O=[N+]([O-])c1cn2c(n1)OC[C@@H](OCc1ccc(-c3cccc(F)n3)cn1)C2	41 (≈ 110 µM)	–	–	1.4 (≈ 0.52 µg/mL)	20 (≈ 7.43 µg/mL)	–
O=[N+]([O-])c1cn2c(n1)OC[C@@H](OCc1ccc(-c3ccc(C(F)(F)F)nc3)cn1)C2	12 (≈ 28.5 µM)	–	–	0.24 (≈ 0.101 µg/mL)	16 (≈ 6.74 µg/mL)	–
O=[N+]([O-])c1cn2c(n1)OC[C@@H](OCc1ccc(-c3ccc(F)nc3)cn1)C2	43 (≈ 116 µM)	–	–	0.49 (≈ 0.182 µg/mL)	19 (≈ 7.06 µg/mL)	–
O=[N+]([O-])c1cn2c(n1)OC[C@@H](OCc1ccc(-c3cncc(F)c3)cn1)C2	130 (≈ 350 µM)	–	–	2.6 (≈ 0.965 µg/mL)	21 (≈ 7.8 µg/mL)	–
COc1ccc(-c2ccc(CO[C@@H]3COc4nc([N+](=O)[O-])cn4C3)nc2)cn1	24 (≈ 62.6 µM)	–	–	0.36 (≈ 0.138 µg/mL)	9.6 (≈ 3.68 µg/mL)	–
O=[N+]([O-])c1cn2c(n1)OC[C@@H](OCc1ccc(-c3ccncc3F)cn1)C2	700 (≈ 1890 µM)	–	–	3.2 (≈ 1.19 µg/mL)	20 (≈ 7.43 µg/mL)	–
O=[N+]([O-])c1cn2c(n1)OC[C@@H](OCc1ccc(-c3ccnc(F)c3)cn1)C2	42 (≈ 113 µM)	–	–	1.7 (≈ 0.631 µg/mL)	14 (≈ 5.2 µg/mL)	–
O=[N+]([O-])c1cn2c(n1)OC[C@@H](OCc1ccc(-c3ccc(C(F)(F)F)cc3)nc1)C2	1.2 (≈ 2.85 µM)	–	–	0.053 (≈ 0.0223 µg/mL)	0.53 (≈ 0.223 µg/mL)	–
